Key:
[1] = system: NB4 cells, CD33-target expressing; test: In vitro cell assay, cell viability by MTS, NB4; assay type: cell-based; details: Homo sapiens, NB-4, 96 h, read-out: Average IC50, NB4
Protocol: (§1) Her2-Target expressing (BT474 (breast cancer), N87 (gastric cancer), MDA-MB-361-DYT2 (breast cancer)) or Her2-non-expressing (MDA-MB-468, HT29) cells, or 0033-target expressing HL60, HEL92.1.7, NB4, TF-1 or 0033-non-expressing (Raji) cells were seeded in 96-well cell culture plates for 24 hours before treatment. Cells were treated with 3-fold serially diluted antibody-drug conjugates or free compounds (i.e., no antibody conjugated to the drug) in duplicate at 10 concentrations. Cell viability was determined by CellTiter 96® AQueous One Solution Cell Proliferation MTS Assay (Promega, Madison WI) 96 hours after treatment. Relative cell viability was determined as percentage of untreated control. IC50 values were calculated using a four parameter logistic model #203 with XLfit v4.2 (IDBS, Guildford, Surry, UK). Results are shown below in Table 3 (for payloads), Table 4 (for Herceptin conjugates), and Table 5 (for CD33 conjugates).

[2] = system: TF-1 cells, CD33-target expressing; test: In vitro cell assay, cell viability by MTS, TF-1; assay type: cell-based; details: Homo sapiens, TF-1, 96 h, read-out: Average IC50, TF-1
Protocol: as §1

[3] = system: N87 (gastric cancer) cells, Her2-target expressing; test: In vitro cell assay, cell viability by MTS, N87; assay type: cell-based; details: 96 h, read-out: Average IC50, N87
Protocol: as §1

[4] = system: Raji cells, CD33-non-expressing; test: In vitro cell assay, cell viability by MTS, Raji; assay type: cell-based; details: Homo sapiens, 96 h, read-out: Average IC50, Raji
Protocol: as §1

[5] = system: HL60 cells, CD33-target expressing; test: In vitro cell assay, cell viability by MTS, HL60; assay type: cell-based; details: Homo sapiens, HL-60, 96 h, read-out: Average IC50, HL-60
Protocol: as §1

[6] = system: HT29 cells, Her2-non-expressing; test: In vitro cell assay, cell viability by MTS, HT29; assay type: cell-based; details: Homo sapiens, HT-29, 96 h, read-out: Average IC50, HT29
Protocol: as §1

[7] = system: MDA-MB-361-DYT2 (breast cancer) cells, Her2-target expressing; test: In vitro cell assay, cell viability by MTS, MDA-MB-361-DYT2; assay type: cell-based; details: 96 h, read-out: Average IC50, MDA-MB-361-DYT2
Protocol: as §1

[8] = system: HEL92.1.7 cells, CD33-target expressing; test: In vitro cell assay, cell viability by MTS, HEL92.1.7; assay type: cell-based; details: Homo sapiens, HEL 92.1.7, 96 h, read-out: Average IC50, HEL92.1.7
Protocol: as §1

[9] = system: TF-1 AML xenograft tumors; test: TF-1 AML subcutaneous xenograft model; assay type: in vivo, female Athymic nu/nu mice; details: Mylotarg dosed at 1 mg/kg Q4dx4 intravenously
Protocol: The cyno-human chimeric anti 0033 antibody, 11A1, was conjugated to various linker-payloads (as per 0033 conjugates in Examples 50-110) and tested in Acute Myeloid Leukemia (AML) xenograft models. For each model described below the first dose was given on Day 0. The tumors were measured at least once a week and their volume was calculated with the formula: tumor volume (mm^3)=0.5×(tumor width^2)(tumor length). The mean tumor volumes (±S.E.M.) for each treatment group were calculated having a maximum of 10 animals and a minimum of 4 animals to be included. All animal experiments were conducted in a facility accredited by the Association for Assessment of Laboratory Animal Care under Institutional Animal Care and Use Committee guidelines and appropriate animal research approval.
The effects of anti-CD33 ADCs were examined in immunodeficient mice on the in vivo growth of human tumors. For subcutaneous (sc) AML models, 10×10^6 TF-1 cells were implanted subcutaneously in the flank of female Athymic nu/nu mice. When the tumors reached an average volume of 300 mm^3, animals were staged to ensure uniformity of the tumor size among various treatment groups. The TF-1 AML sc xenograft model was dosed intravenously one time every four days for four cycles (Q4dx4) with PBS vehicle or humanized anti-CD33 […] at the doses provided in Tables 11-13.

For `CCN[C@H]1CO[C@@H](O[C@H]2[C@H](O[C@H]3C#C/C=C\C#C[C@]4(O)CC(=O)C(NC(=O)OC)=C3/C4=C\CSSC(C)(C)CC(=O)NN)O[C@H](C)[C@@H](NO[C@H]3C[C@H](O)[C@H](SC(=O)c4c(C)c(I)c(O[C@@H]5O[C@@H](C)[C@H](O)[C@@H](OC)[C@H]5O)c(OC)c4OC)[C@@H](C)O3)[C@@H]2O)C[C@@H]1OC` [Example P7], the IC50 [1] was 0.152 nM, the IC50 [2] was > 90 nM and the IC50 [3] was 0.046 nM. For the same compound, the IC50 [4] was 0.161 nM, the IC50 [5] was 0.124 nM and the IC50 [6] was 0.075 nM. It also gave an IC50 [7] of 1.03 nM and an IC50 [8] of 1.22 nM.
`CCN[C@H]1CO[C@@H](O[C@H]2[C@H](O[C@H]3C#C/C=C\C#C[C@]4(O)CC(=O)C(NC(=O)OC)=C3/C4=C\CSSc3ccccc3)O[C@H](C)[C@@H](NO[C@H]3C[C@H](O)[C@H](SC(=O)c4c(C)c(I)c(O[C@@H]5O[C@@H](C)[C@H](O)[C@@H](OC)[C@H]5O)c(OC)c4OC)[C@@H](C)O3)[C@@H]2O)C[C@@H]1OC` [Example P10] was tested, and the IC50 [1] was 0.003 nM, the IC50 [2] was 0.029 nM and the IC50 [3] was 0.031 nM. It also gave an IC50 [4] of 0.005 nM, an IC50 [5] of 0.004 nM and an IC50 [6] of 0.03 nM. It also gave an IC50 [7] of 0.025 nM and an IC50 [8] of 0.004 nM.
Compound `CCN[C@H]1CO[C@@H](O[C@H]2[C@H](O[C@H]3C#C/C=C\C#C[C@]4(O)CC(=O)C(NC(=O)OC)=C3/C4=C\CSSC(C)C(=O)OCC)O[C@H](C)[C@@H](NO[C@H]3C[C@H](O)[C@H](SC(=O)c4c(C)c(I)c(O[C@@H]5O[C@@H](C)[C@H](O)[C@@H](OC)[C@H]5O)c(OC)c4OC)[C@@H](C)O3)[C@@H]2O)C[C@@H]1OC` (stereo partly drawn) [Example P11] has an IC50 [1] of 0.001 nM, an IC50 [2] of 0.03 nM and an IC50 [3] of 0.007 nM. The IC50 [4] was 0.002 nM, the IC50 [5] was 0.002 nM and the IC50 [6] was 0.006 nM. The IC50 [7] was 0.008 nM and the IC50 [8] was 0.003 nM.
Compound `CCN[C@H]1CO[C@@H](O[C@H]2[C@H](O[C@H]3C#C/C=C\C#C[C@]4(O)CC(=O)C(NC(=O)OC)=C3/C4=C\CSSC(C)(C)C(=O)O)O[C@H](C)[C@@H](NO[C@H]3C[C@H](O)[C@H](SC(=O)c4c(C)c(I)c(O[C@@H]5O[C@@H](C)[C@H](O)[C@@H](OC)[C@H]5O)c(OC)c4OC)[C@@H](C)O3)[C@@H]2O)C[C@@H]1OC` [Example P12] has an IC50 [1] of 0.005 nM, an IC50 [2] of 0.245 nM and an IC50 [3] of 0.64 nM. The IC50 [4] was 0.033 nM, the IC50 [5] was 0.04 nM and the IC50 [6] was 0.687 nM. For the same compound, the IC50 [7] was 4.16 nM and the IC50 [8] was 0.102 nM.
`CCN[C@H]1CO[C@@H](O[C@H]2[C@H](O[C@H]3C#C/C=C\C#C[C@]4(O)CC(=O)C(NC(=O)OC)=C3/C4=C\CSSc3ccc(C(=O)O)cc3)O[C@H](C)[C@@H](NO[C@H]3C[C@H](O)[C@H](SC(=O)c4c(C)c(I)c(O[C@@H]5O[C@@H](C)[C@H](O)[C@@H](OC)[C@H]5O)c(OC)c4OC)[C@@H](C)O3)[C@@H]2O)C[C@@H]1OC` [Example P13] was tested, and the IC50 [1] was 0.023 nM, the IC50 [2] was 0.331 nM and the IC50 [3] was 0.536 nM. The IC50 [4] was 0.022 nM, the IC50 [5] was 0.044 nM and the IC50 [6] was 0.792 nM. The IC50 [7] was 0.982 nM and the IC50 [8] was 0.039 nM.
Compound `CCN[C@H]1CO[C@@H](O[C@H]2[C@H](O[C@H]3C#C/C=C\C#C[C@]4(O)CC(=O)C(NC(=O)OC)=C3/C4=C\CSSC3CCNCC3)O[C@H](C)[C@@H](NO[C@H]3C[C@H](O)[C@H](SC(=O)c4c(C)c(I)c(O[C@@H]5O[C@@H](C)[C@H](O)[C@@H](OC)[C@H]5O)c(OC)c4OC)[C@@H](C)O3)[C@@H]2O)C[C@@H]1OC` [Example P16] has an IC50 [1] of 0.015 nM, an IC50 [2] of 0.15 nM and an IC50 [3] of 0.023 nM. It also gave an IC50 [4] of 0.077 nM, an IC50 [5] of 0.024 nM and an IC50 [6] of 0.035 nM. It also gave an IC50 [7] of 0.045 nM and an IC50 [8] of 0.071 nM.
`CCN(CC(=O)O)[C@H]1CO[C@@H](O[C@H]2[C@H](O[C@H]3C#C/C=C\C#C[C@]4(O)CC(=O)C(NC(=O)OC)=C3/C4=C\CSSC(C)C)O[C@H](C)[C@@H](NO[C@H]3C[C@H](O)[C@H](SC(=O)c4c(C)c(I)c(O[C@@H]5O[C@@H](C)[C@H](O)[C@@H](OC)[C@H]5O)c(OC)c4OC)[C@@H](C)O3)[C@@H]2O)C[C@@H]1OC` [Example P50] showed an IC50 [1] of 0.127 nM, an IC50 [2] of 17.9 nM and an IC50 [3] of 1.05 nM. For the same compound, the IC50 [4] was 0.438 nM, the IC50 [5] was 0.372 nM and the IC50 [6] was 0.775 nM. It also gave an IC50 [7] of 7.33 nM and an IC50 [8] of 3.93 nM.
For “Mylotarg®: "anti-CD33 humanized monoclonal antibody conjugated to calicheamicin for the treatment of acute myelogenous leukemia"”, the “efficacy in TF-1 AML xenografts” value [9] was “ineffective”.
